Measured values: patent US20210361774A1, “DEGRADERS OF WILD-TYPE AND MUTANT FORMS OF LRRK2” (DANA-FARBER CANCER INSTITUTE, INC., priority 2018, published 2021)

Columns and labels:
[1] = system: LRRK2; test: Cellular degradation of LRRK2, Western blot in MEFs; format: cell-based, Mouse; details: for degradation of LRRK2 (total level): Western blot, time course, 0 nM-1000 nM; for level of LRRK2 (degradation): after 48 hours (FIG. 18)
Experimental: (§1) Cell lines used: Mouse embryonic fibroblast (MEF) WT, LRRK2 homozygous knock-ins in MEFs [R1441C; VPS35N(D620N); G2019S].
(§2) Tested concentration of LRRK2 degraders: 0 nM, 10 nM, 30 nM, 100 nM, 300 nM, 1000 nM. Additional concentrations tested for inventive compound 3: 2 uM, 5 uM and 10 uM.
(§3) Complete growth medium: DMEM supplemented with: 10% Fetal Bovine Serum; 1% pen/strep; 1% L-Glutamine; 1% MEM Non-essential Amino Acid Solution; 1% sodium pyruvate.
(§4) Commercial and in-house purified antibodies: • (a) Mouse anti-LRRK2/Dardarin antibody from Antibodies, Inc. (Cat #75-253). • (b) Rabbit monoclonal antibodies for total LRRK2 (UDD3) and pS935-LRRK2 (UDD2) were purified at the University of Dundee (as described in Dzamko et al., PLoS One 7(6): e39132 (2012). • (c) Loading controls: anti-α-tubulin (Cell Signaling Technology #5174); anti-GAPDH (Santa Cruz Biotechnology Cat. #sc-32233) • (d) (p)Rab10 antibodies: rabbit anti-RAB10 (phospho T73) antibody [MJF-R21] (ab230261); mouse MJFF-total Rab10 monoclonal antibody were generated by nanoTools (www.nanotools.de); rabbit Rab10 total was from Cell Signaling Technology (Rab10 (D36C4) XP® Rabbit mAb #8127)
(§5) Treatment: WT MEF, R1441C, VPS35N and G2019S mutants' cells were plated at equal density into 6-well plates in a final volume of 3 mL of complete growth medium/well. Degraders were reconstituted in DMSO and used at 1:1000 in cells i.e. 3 μl/3 ml. Treatment began when cells were >60% confluent, starting from a 48-hour time point, followed by a 24-hour time point, a 6-hour time point and finally a 1-hour time point.
(§6) Cell lysis: Media were aspirated, plates were placed on ice and cells were washed with Dulbecco's phosphate-buffered saline (DPBS). Fifty microliters of an ice-cold lysis buffer containing 50 mM Tris-HCl, pH 7.5, 1% (v/v) Triton X-100, 1 mM ethylene glycol-bis(μ-aminoethyl ether)-N,N,N′,N′-tetraacetic acid (EGTA), 1 mM sodium orthovanadate, 50 mM NaF, 0.1% (v/v) 2-mercaptoethanol, 10 mM 2-glycerophosphate, 5 mM sodium pyrophosphate, 0.1 μg/ml microcystin-LR (Enzo Life Sciences), 270 mM sucrose and complete EDTA-free protease inhibitor cocktail (Sigma-Aldrich Cat #11836170001) was added per well. Lysates were centrifuged at 20,817 g (14,000 rpm) for 15 min at 4° C. and supernatants were used to determine protein concentration using Bradford assay (Pierce™ Coomassie (Bradford) Protein Assay Kit, Thermo Scientific™ Cat #23200) and for Western blot analysis.
(§7) Western blot analysis: Cell lysates were mixed with 4× SDS-PAGE sample buffer [50 mM Tris-HCl, pH 6.8, 2% (w/v) SDS, 10% (v/v) glycerol, 0.02% (w/v) Bromophenol Blue and 1% (v/v) 2-mercaptoethanol] to a final total protein concentration of 1 μg/μl and heated at 95° C. for 5 minutes. Twenty micrograms of samples were loaded onto NuPAGE™ 4-12% Bis-Tris gradient gels (Life Technologies) along with 3 μl of BIO-RAD protein marker (Precision Plus Protein™ All Blue Prestained Protein Standards #1610373 kDa), gels were run in duplicates at 110V for 2 hours and 30 minutes with the NuPAGE™ MOPS SDS running buffer (Life Technologies, Cat #NP0001-02). After electrophoresis, the separated proteins were transferred onto the nitrocellulose membrane (GE Healthcare, Amersham Protran 0.45 μm NC) at 90 V for 90 minutes. Transferred membranes were briefly stained with Ponceau S stain and divided into 3 strips, as described earlier in Fan et al., Biochem. J. 475:23-44 (2018). Briefly, upper strip was cut from the top of the membrane to 75 kDa, middle strip cut was between 75 kDa—30 kDa and bottom strip cut was from 30 kDa—to the bottom of the membrane. Membrane strips were blocked at room temperature with 5% (w/v) dried skimmed milk dissolved in TBS-T [20 mM Tris-HCl, pH 7.5, 150 mM NaCl and 0.1% (v/v) Tween® 20] for 1 hour, washed four times with ten minutes intervals in TBS-T and incubated with primary antibodies diluted in 5% BSA (bovine serum albumin) in TBS-T overnight at 4° C. […]

[2] = molecular target: T1, LRRK2 G2019S (Homo sapiens, UniProt Q5S007, G2019S); test: IC50 experiments, Invitrogen Adapta assay, LRRK2 G2019S; format: biochemical
T1 construct: purchased Invitrogen
Experimental: (§8) IC50 experiments were performed using Invitrogen™'s Adapta™ assay.

[3] = system: LRRK2 pS935; test: Inhibition of phosphorylation of S935, Western blot in MEFs; format: cell-based, Mouse; details: for inhibition of phosphorylation of S935: Western blot, time course, 0 nM-1000 nM
Experimental: as §1, §2, §3, §4, §5, §6, §7

[4] = system: Rab10 (phospho T73); test: Inhibition of phosphorylation of Rab10, Western blot in MEFs; format: cell-based, Mouse; details: for inhibition of phosphorylation of Rab10: Western blot, time course, 0 nM-1000 nM
Experimental: as §1, §2, §3, §4, §5, §6, §7

[5] = molecular target: T2, LRRK2 wt (Homo sapiens, UniProt Q5S007); test: IC50 experiments, Invitrogen Adapta assay, LRRK2 wt; format: biochemical
T2 construct: purchased Invitrogen
Experimental: as §8

T1 sequence (Q5S007 whole entry G2019S): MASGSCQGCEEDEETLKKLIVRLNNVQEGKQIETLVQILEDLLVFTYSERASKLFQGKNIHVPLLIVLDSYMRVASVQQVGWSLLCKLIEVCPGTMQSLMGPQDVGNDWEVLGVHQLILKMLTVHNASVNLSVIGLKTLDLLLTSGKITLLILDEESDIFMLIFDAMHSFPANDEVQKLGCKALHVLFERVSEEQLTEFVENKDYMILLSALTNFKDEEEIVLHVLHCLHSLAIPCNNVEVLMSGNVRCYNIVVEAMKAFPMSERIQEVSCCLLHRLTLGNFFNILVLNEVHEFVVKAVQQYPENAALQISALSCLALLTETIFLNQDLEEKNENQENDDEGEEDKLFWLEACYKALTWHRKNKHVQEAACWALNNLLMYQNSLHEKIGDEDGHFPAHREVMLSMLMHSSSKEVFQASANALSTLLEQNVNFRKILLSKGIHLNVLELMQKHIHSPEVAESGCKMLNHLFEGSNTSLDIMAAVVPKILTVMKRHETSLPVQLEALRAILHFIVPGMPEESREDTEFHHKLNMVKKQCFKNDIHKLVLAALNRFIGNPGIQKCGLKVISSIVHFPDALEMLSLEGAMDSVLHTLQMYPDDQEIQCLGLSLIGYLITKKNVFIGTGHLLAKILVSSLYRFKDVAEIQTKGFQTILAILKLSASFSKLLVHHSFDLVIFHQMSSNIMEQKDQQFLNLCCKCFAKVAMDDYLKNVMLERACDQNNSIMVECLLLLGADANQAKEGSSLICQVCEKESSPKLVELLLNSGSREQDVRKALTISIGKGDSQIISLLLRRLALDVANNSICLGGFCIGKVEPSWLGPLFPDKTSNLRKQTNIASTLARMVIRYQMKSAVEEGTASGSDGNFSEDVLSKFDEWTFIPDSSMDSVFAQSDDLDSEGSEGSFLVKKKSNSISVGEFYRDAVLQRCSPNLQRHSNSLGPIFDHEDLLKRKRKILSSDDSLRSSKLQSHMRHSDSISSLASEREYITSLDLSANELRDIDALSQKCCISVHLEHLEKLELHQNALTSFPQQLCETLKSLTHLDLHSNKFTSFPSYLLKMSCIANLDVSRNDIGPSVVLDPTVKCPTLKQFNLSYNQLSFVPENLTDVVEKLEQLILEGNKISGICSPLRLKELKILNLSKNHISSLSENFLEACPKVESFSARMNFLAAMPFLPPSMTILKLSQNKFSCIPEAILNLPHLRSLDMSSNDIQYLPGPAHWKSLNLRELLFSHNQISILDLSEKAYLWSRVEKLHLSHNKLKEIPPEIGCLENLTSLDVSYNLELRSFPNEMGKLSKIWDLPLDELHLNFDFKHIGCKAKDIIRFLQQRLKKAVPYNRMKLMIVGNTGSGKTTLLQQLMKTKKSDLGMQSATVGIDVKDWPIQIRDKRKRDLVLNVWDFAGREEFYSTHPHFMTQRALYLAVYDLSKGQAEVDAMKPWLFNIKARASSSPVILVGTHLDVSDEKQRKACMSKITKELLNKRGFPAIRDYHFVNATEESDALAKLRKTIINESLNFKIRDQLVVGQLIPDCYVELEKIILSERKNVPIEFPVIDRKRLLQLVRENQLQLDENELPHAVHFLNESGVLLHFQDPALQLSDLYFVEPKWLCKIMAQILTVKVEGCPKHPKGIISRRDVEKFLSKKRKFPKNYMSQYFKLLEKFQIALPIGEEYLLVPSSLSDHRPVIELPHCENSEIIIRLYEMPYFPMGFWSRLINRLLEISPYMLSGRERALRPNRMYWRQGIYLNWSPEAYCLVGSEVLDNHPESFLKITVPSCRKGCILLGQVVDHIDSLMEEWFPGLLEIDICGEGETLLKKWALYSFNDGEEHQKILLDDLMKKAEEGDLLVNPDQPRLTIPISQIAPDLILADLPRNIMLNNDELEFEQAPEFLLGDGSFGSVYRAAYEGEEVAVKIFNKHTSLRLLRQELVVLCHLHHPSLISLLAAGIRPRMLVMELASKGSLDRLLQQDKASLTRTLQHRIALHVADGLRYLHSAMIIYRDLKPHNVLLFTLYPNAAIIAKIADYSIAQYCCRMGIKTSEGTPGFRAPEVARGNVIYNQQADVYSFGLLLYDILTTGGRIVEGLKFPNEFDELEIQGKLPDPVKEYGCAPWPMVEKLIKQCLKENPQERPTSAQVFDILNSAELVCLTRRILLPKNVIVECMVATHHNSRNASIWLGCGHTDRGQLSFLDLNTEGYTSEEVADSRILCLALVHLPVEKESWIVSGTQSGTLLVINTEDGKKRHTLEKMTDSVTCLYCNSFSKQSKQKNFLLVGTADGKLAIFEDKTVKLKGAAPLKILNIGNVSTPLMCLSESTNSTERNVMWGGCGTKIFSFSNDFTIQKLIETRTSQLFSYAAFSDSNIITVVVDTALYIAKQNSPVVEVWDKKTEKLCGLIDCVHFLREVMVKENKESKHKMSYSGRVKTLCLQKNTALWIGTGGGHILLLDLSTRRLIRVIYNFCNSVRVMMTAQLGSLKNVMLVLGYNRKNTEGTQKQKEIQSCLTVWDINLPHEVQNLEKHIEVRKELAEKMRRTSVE
T2 sequence (Q5S007 whole entry): as the sequence (Q5S007 whole entry G2019S) above, with S2019G counted along it

In the case of `CNc1nc(Nc2ccc(C(=O)N3CCN(C(=O)CCOCCOCCOCCOCCNc4cccc5c4C(=O)N(C4CCC(=O)NC4=O)C5=O)CC3)cc2OC)ncc1C(F)(F)F` (stereo not shown) [Compound 1], the “degradation of LRRK2 (total level)” value [1] is reported as “did not degrade”, the IC50 [2] is reported as 2 nM and the “inhibition of phosphorylation of S935” value [3] is reported as “inhibited”. For the same compound, the “inhibition of phosphorylation of Rab10” value [4] was “inhibited” and the IC50 [5] was 4 nM.

In the case of `CNc1nc(Nc2ccc(C(=O)N3CCN(C(=O)CCOCCOCCNc4cccc5c4C(=O)N(C4CCC(=O)NC4=O)C5=O)CC3)cc2OC)ncc1C(F)(F)F` (stereo not shown) [Compound 2], the “degradation of LRRK2 (total level)” value [1] is reported as “did not degrade”, the IC50 [2] is reported as 1 nM and the “inhibition of phosphorylation of S935” value [3] is reported as “inhibited”. The “inhibition of phosphorylation of Rab10” value [4] was “inhibited” and the IC50 [5] was 2 nM.

In the case of `CNc1nc(Nc2ccc(C(=O)N3CCN(CCOCCOCCOCCNc4cccc5c4C(=O)N(C4CCC(=O)NC4=O)C5=O)CC3)cc2OC)ncc1C(F)(F)F` (stereo not shown) [Compound 5], the “degradation of LRRK2 (total level)” value [1] is reported as “did not degrade”, the “inhibition of phosphorylation of S935” value [3] is reported as “inhibited” and the “inhibition of phosphorylation of Rab10” value [4] is reported as “inhibited”.

In the case of `CC1(Oc2ccc3[nH]nc(-c4cc(N5CCN(C(=O)CCOCCOCCNc6cccc7c6C(=O)N(C6CCC(=O)NC6=O)C7=O)CC5)ncn4)c3c2)CC1` (stereo not shown) [Compound 8, 2-(2,6-dioxopiperidin-3-yl)-4-((2-(2-(3-(4-(6-(5-(1-methylcyclopropoxy)-1H-indazol-3-yl)pyrimidin-4-yl)piperazin-1-yl)-3-oxopropoxy)ethoxy)ethyl)amino)isoindoline-1,3-dione], the “degradation of LRRK2 (total level)” value [1] is reported as “decreased”, the “level of LRRK2 (degradation)” value [1] is reported as “degraded” and the IC50 [2] is reported as 1.13 nM. The “inhibition of phosphorylation of S935” value [3] was “inhibited” and the IC50 [5] was 1.24 nM.

For `CC1(Oc2ccc3[nH]nc(-c4cc(N5CCN(C(=O)CCOCCOCCOCCOCCNc6cccc7c6C(=O)N(C6CCC(=O)NC6=O)C7=O)CC5)ncn4)c3c2)CC1` (stereo not shown) [Compound 9], the “degradation of LRRK2 (total level)” value [1] was “decreased”, the IC50 [2] was 0.98 nM and the “inhibition of phosphorylation of S935” value [3] was “inhibited”. The IC50 [5] was 1.46 nM.

With `CC1(Oc2ccc3[nH]nc(-c4cc(N5CCN(C(=O)CCOCCNc6cccc7c6C(=O)N(C6CCC(=O)NC6=O)C7=O)CC5)ncn4)c3c2)CC1` (stereo not shown) [Compound 10, 2-(2,6-dioxopiperidin-3-yl)-4-((2-(3-(4-(6-(5-(1-methylcyclopropoxy)-1H-indazol-3-yl)pyrimidin-4-yl)piperazin-1-yl)-3-oxopropoxy)ethyl)amino)isoindoline-1,3-dione] the “degradation of LRRK2 (total level)” value [1] was “Less degradation”, the IC50 [2] was 1.08 nM and the “inhibition of phosphorylation of S935” value [3] was “inhibited”. It also gave an IC50 [5] of 1.59 nM.

`CC1(Oc2ccc3[nH]nc(-c4cc(N5CCN(C(=O)CCOCCNc6cccc7c6C(=O)N(C6CCC(=O)NC6=O)C7)CC5)ncn4)c3c2)CC1` (stereo not shown) [Compound 11, 3-(7-((2-(3-(4-(6-(5-(1-methylcyclopropoxy)-1H-indazol-3-yl)pyrimidin-4-yl)piperazin-1-yl)-3-oxopropoxy)ethyl)amino)-1-oxoisoindolin-2-yl)piperidine-2,6-dione] was tested, and the “degradation of LRRK2 (total level)” value [1] was “Some degradation”, the IC50 [2] was 1.47 nM and the “inhibition of phosphorylation of S935” value [3] was “inhibits”. For the same compound, the IC50 [5] was 2.5 nM.

`CC1(Oc2ccc3[nH]nc(-c4cc(N5CCN(C(=O)CCOCCOCCNc6cccc7c6C(=O)N(C6CCC(=O)NC6=O)C7)CC5)ncn4)c3c2)CC1` (stereo not shown) [Compound 12, 3-(7-((2-(2-(3-(4-(6-(5-(1-methylcyclopropoxy)-1H-indazol-3-yl)pyrimidin-4-yl)piperazin-1-yl)-3-oxopropoxy)ethoxy)ethyl)amino)-1-oxoisoindolin-2-yl)piperidine-2,6-dione] was tested, and the “degradation of LRRK2 (total level)” value [1] was “Minor degradation”, the IC50 [2] was 2.24 nM and the “inhibition of phosphorylation of S935” value [3] was “inhibited”. The IC50 [5] was 2.58 nM.

With `CC1(Oc2ccc3[nH]nc(-c4cc(N5CCN(C(=O)CCOCCOCCOCCOCCNc6cccc7c6C(=O)N(C6CCC(=O)NC6=O)C7)CC5)ncn4)c3c2)CC1` (stereo not shown) [Compound 13] the “degradation of LRRK2 (total level)” value [1] was “Some degradation”, the IC50 [2] was 3.16 nM and the “inhibition of phosphorylation of S935” value [3] was “inhibited”. It also gave an IC50 [5] of 3.14 nM.

In the case of `Cc1ncsc1-c1ccc([C@@H](C)NC(=O)[C@H]2C[C@H](O)CN2C(=O)[C@H](NC(=O)CCOCCOCCOCCC(=O)N2CCN(c3cc(-c4n[nH]c5ccc(OC6(C)CC6)cc45)ncn3)CC2)C(C)(C)C)cc1` [Compound 14, (2R,4S)-1-((R)-2-(tert-butyl)-16-(4-(6-(5-(1-methylcyclopropoxy)-1H-indazol-3-yl)pyrimidin-4-yl)piperazin-1-yl)-4,16-dioxo-7,10,13-trioxa-3-azahexadecanoyl)-4-hydroxy-N—((R)-1-(4-(4-methylthiazol-5-yl)phenyl)ethyl)pyrrolidine-2-carboxamide], the “degradation of LRRK2 (total level)” value [1] is reported as “No degradation”, the “inhibition of phosphorylation of S935” value [3] is reported as “inhibited” and the “inhibition of phosphorylation of Rab10” value [4] is reported as “inhibited”.

`Cc1ncsc1-c1ccc([C@H](C)NC(=O)[C@@H]2C[C@@H](O)CN2C(=O)[C@@H](NC(=O)CCOCCOCCOCCOCCC(=O)N2CCN(c3cc(-c4n[nH]c5ccc(OC6(C)CC6)cc45)ncn3)CC2)C(C)(C)C)cc1` [Compound 15] was tested, and the “degradation of LRRK2 (total level)” value [1] was “No degradation”, the “inhibition of phosphorylation of S935” value [3] was “inhibited” and the “inhibition of phosphorylation of Rab10” value [4] was “inhibited”.

`CC1(Oc2ccc3[nH]nc(-c4cc(N5CCN(C(=O)CCOCCOCCNc6cccc7c6C(=O)N(C6CCCNC6=O)C7=O)CC5)ncn4)c3c2)CC1` (stereo not shown) [Compound 16] was tested, and the “level of LRRK2 (degradation)” value [1] was “did not reduce”, the “inhibition of pS935” value ([3]; after 48 hours (FIG. 18)) was “potently inhibited” and the “inhibition of pRAB10” value ([4]; after 48 hours (FIG. 18)) was “potently inhibited”.

In the case of `CN1CCN(c2cc(-c3n[nH]c4ccc(OC5(C)CC5)cc34)ncn2)CC1` [MLi-2 analog, 5-(1-methylcyclopropyl)oxy-3-[6-(4-methylpiperazin-1-yl)pyrimidin-4-yl]-1H-indazole, reference compound], the “degradation of LRRK2 (total level)” value [1] is reported as “did not decrease” and the “inhibition of phosphorylation of S935” value [3] is reported as “inhibits”.
